Assay results as given in patent US8507535B2 (Hoffmann-La Roche Inc., priority 2010, dated 2013).

Key:
[1] = phase II trial, cited from earlier work
human NK3 receptor = human NK3 receptor (Homo sapiens (Human), UniProt P29371); assay: [3H]SR142801 competition binding assay; conditions: membranes from HEK293 cells transiently expressing recombinant human NK3 receptor; [3H]SR142801 radioligand; second half of table, head prints nM; read-out: Ki (nM) hNK3
Protocol: [^3H]SR142801 Competition Binding Assay
hNK3 receptor binding experiment were performed using [^3H]SR142801 (Catalog No. TRK1035, specific activity: 74.0 Ci/mmol, Amersham, GE Healthcare UK limited, Buckinghamshire, UK) and membrane isolated from HEK293 cells transiently expressing recombinant human NK3 receptor. After thawing, the membrane homogenates were centrifuged at 48,000×g for 10 min at 4° C., the pellets were resuspended in the 50 mM Tris-HCl, 4 mM MnCl2, 1 μM phosphoramidon, 0.1% BSA binding buffer at pH 7.4 to a final assay concentration of 5 μg protein/well. For inhibition experiments, membranes were incubated with [^3H]SR142801 at a concentration equal to KD value of radioligand and 10 concentrations of the inhibitory compound (0.0003-10 μM) (in a total reaction volume of 500 μl) for 75 min at room temperature (RT). At the end of the incubation, membranes were filtered onto unitfilter (96-well white microplate with bonded GF/C filter preincubated 1 h in 0.3% PEI+0.3% BSA, Packard BioScience, Meriden, Conn.) with a Filtermate 196 harvester (Packard BioScience) and washed 4 times with ice-cold 50 mM Tris-HCl, pH 7.4 buffer. Nonspecific binding was measured in the presence of 10 μM SB222200 for both radioligands. The radioactivity on the filter was counted (5 min) on a Packard Top-count microplate scintillation counter with quenching correction after addition of 45 μl of microscint 40 (Can berra Packard S. A., Zurich, Switzerland) and shaking for 1 h. Inhibition curves were fitted according to the Hill equation: y=100/(1+(x/IC50)^nH), where nH=slope factor using Excel-fit 4 software (Microsoft). IC50 values were derived from the inhibition curve and the affinity constant (Ki) values were calculated using the Cheng-Prussoff equation Ki=IC50/(1+[L]/KD) where [L] is the concentration of radioligand and KD is its dissociation constant at the receptor, derived from the saturation isotherm. All experiments were performed in duplicate and the mean±standard error (SEM) of the individual Ki values was calculated.

human NK3 receptor, sequence (P29371 whole entry): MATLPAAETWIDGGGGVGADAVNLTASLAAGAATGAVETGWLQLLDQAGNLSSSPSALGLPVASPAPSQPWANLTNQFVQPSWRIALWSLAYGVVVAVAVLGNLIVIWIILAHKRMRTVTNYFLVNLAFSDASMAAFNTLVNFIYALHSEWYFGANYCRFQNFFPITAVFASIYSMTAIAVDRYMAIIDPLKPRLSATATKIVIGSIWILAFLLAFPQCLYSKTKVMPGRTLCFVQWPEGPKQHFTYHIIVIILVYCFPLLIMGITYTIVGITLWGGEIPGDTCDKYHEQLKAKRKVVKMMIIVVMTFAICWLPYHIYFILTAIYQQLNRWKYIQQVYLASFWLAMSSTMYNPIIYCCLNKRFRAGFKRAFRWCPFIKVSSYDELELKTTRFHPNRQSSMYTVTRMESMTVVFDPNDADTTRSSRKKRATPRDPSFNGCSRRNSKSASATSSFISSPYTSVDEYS

Row | Ki (human NK3 receptor) | Structure (SMILES) | activity on positive symptoms of schizophrenia ([1]; altered behaviour, delusion, hallucinations, extreme emotions, excited motor activity, incoherent speech) | activity on negative symptoms of schizophrenia ([1]; depression, anhedonia, social isolation, memory and attention deficits)
1 |  | CC(=O)N(C)C1(c2ccccc2)CCN(CCC[C@]2(c3ccc(Cl)c(Cl)c3)CCCN(C(=O)c3ccccc3)C2)CC1 [SR 142,801, Osanetant] | active on positive symptoms of schizophrenia | inactive in the treatment of negative symptoms
2 | 26.1 nM | Cc1nc(-c2ccc(C(=O)N3C[C@H](c4ccc(Cl)cc4)[C@@](C)(COc4ccc(Cl)cn4)C3)cc2)no1 (racemic) [Example 24, [(3RS,4RS)-4-(4-Chloro-phenyl)-3-(5-chloro-pyridin-2-yloxymethyl)-3-methyl-pyrrolidin-1-yl]-[4-(5-methyl-[1,2,4]oxadiazol-3-yl)-phenyl]-methanone] |  | 
